Experiment [1] concerns cultured hippocampal neurons. Briefly: Kainate induced neuronal cell death in hippocampal cultures. Type of experiment: cell-based, rat. To be noted: 20 μM CNQX, 10 μM MK-801, 10 μM memantine or 10 μM NBTA. How it is done:
FIG. 7. NBTA protects cultured hippocampal neurons from NMDA receptor-mediated excitotoxic cell death. Trypan blue exclusion assays of (A) control neurons and neurons exposed to 200 μM NMDA in the absence (B) or presence of 10 μM memantine (C); and in the presence of 10 μM NBTA (D). (E) Normalized cell death in the absence and presence of the lead. (F) Neuronal death induced by kainate in the absence or presence of 20 μM CNQX, 10 μM MK-801, 10 μM memantine or 10 μM NBTA. Data are mean±s.e., n=2000.
To evaluate the specificity of the neuroprotective effect of NBTA<its activity against kainate induced neuronal cell death was assessed.
(§1) Mixed hippocampal neuron/glia primary cultures were employed to assess the neuroprotective activities of the identified lead against NMDA receptor-mediated excitotoxic cell death. Primary culture of rat hippocampal neurons were prepared as previously described (Ferrer-Montiel A. V., et al., Nat. Biotechnol., 16(3):286–91, 1998; Schinder A. F., et al.; J. Neurosci., 16(19):6125–33, 1996). In brief, hippocampi from E17–E19 rat embryos were first taken out and incubated at 4° C. in a saline (BSS) containing (mM): 137 NaCl, 3.5 KCl, 0.4 KH2PO4, 0.33 Na2HPO4.7H2O, 5 TES, and 10 glucose, pH 7.4. Hippocampi were then incubated in 0.25% trypsin (1×) solution from Hyclone at 37° C. for 15 min. Tissues were then washed and resuspended in minimal essential medium (Earle's salt) supplemented with 10% heat-inactivated horse serum (Hyclone), 10% fetal bovine serum (Hyclone), 1 mM […], 22 mM glucose, 20U/ml penicillin and 20 ug/ml streptomycin. Digested hippocampi were eventually dissociated by pipetting through a Pasteur pipette. Cells were plated at a density of 5×10^4 cells/cm^2.

In experiment [2] the test system is cultured rat hippocampal neurons. Kind of experiment: Excitotoxic assay in hippocampal cultures, NMDA challenge, trypan blue exclusion. Type of experiment: cell-based. To be noted: 200 μM NMDA and 20 μM glycine for 20 min; for protection from NMDA receptor-mediated cell death: 10 μM, cell death by NMDA alone = 100%. How it is done:
as §1
Neurons cultured 14–17 days were used for the excitotoxic assays. Cultured medium was first removed and rinsed with BSS supplemented with 1 mM CaCl2, and 20 μM glycine. Neurons were challenged with 200 μM NMDA in the absence and presence of […] for 20 min at room temperature. The insults were terminated by removing the BSS containing NMDA. To reduce the excitotoxic effect due to the residual NMDA, the culture medium was supplemented with 20 μM MK-801. Cell cultures were returned to the incubator (37° C., 5% CO2). Cell death was assessed 20–24 hours after the challenge with trypan blue (0.04%) exclusion assays. Fraction of dead cells in cultures treated with control buffer (8±3%, n=2000) was subtracted as background.
NMDA insult alone caused significant cell death of 45±6% (n=2000). Neuroprotective activities as described in the Detailed Description of the Invention were expressed as percentage of net cell death in the absence and presence of 10 μM of the known NMDA receptor blockers and the identified compound. Cell death elicited by NMDA alone was considered as 100%. The assays were repeated in 4 separated occasions with different culture preparations.

Experiment [3] deals with NMDA receptor, NR1 N616R (Homo sapiens, UniProt Q05586+Q12879, N616R). Kind of experiment: Block of NMDA receptor with NR1 N-site mutant N616R in oocytes. Type of experiment: cell-based. The settings on record: versus wild type.
The target in experiment [4] is T1, NMDA receptors (NR1/NR2A) (Homo sapiens, UniProt Q05586+Q12879). Kind of experiment: Two-electrode voltage-clamp block of recombinant NMDA receptors expressed in Xenopus oocytes. Type of experiment: cell-based.
Experimental: Oocytes of stage V and VI were surgically removed from the ovaries of Xenopus oocytes anesthetized with 0.4% ethyl 3-amino-benzoate methanesulfonic acid-Clusters of oocytes were incubated with 2 mg/ml collagenase (Life Technologies, Gaithersburg, Md.) for 1 hour 20 min in Ca^2+-free solution comprised of (mM) 82.5 NaCl, 2.5 KCl, 1 MgCl2, 5 HEPES, pH 7.4 with vigorous agitation to remove the follicular cell layer. Oocytes were then washed extensively with the Ca^2+-free solution to remove the collagenase. Oocytes were eventually incubated in Barth's solution consisted of (in mM): 96 NaCl, 2 mM KCl, 1.8 CaCl2, 1 MgCl2, 5 HEPES supplemented with 100U/ml penicillin and 100 ug/ml streptomycin, pH 7.4 at 17° C. Oocytes were injected with 5–15 ng of cRNA encoding NR1 or its mutant premixed with three-fold amount of cRNA encoding NR2A.
On days two to six following injection of cRNAs, whole oocyte currents were recorded with standard two-electrode voltage-clamp. All electrophysiological studies, unless otherwise stated, were performed in Ba^2+/flufenamic-Ringer's solution (in mM: 10 HEPES pH7.5, 115 NaCl, 2.8 KCl, 2.0 BaCl2, 0.1 flufenamic, 0.1 niflumic acid) at ambient temperature as previously described (Ostresh J. M., et al., J. Org. Chem., 63:8622–8623, 1998; Nefzi A., et al., Tetrahedron, 55:335–344, 1999). Both current and voltage electrodes were filled with 3M KCl and have a tested resistance of 0.5–1 MOhm. The blocking activities of the library were assessed at 10 μM (assuming the molecular weight is ˜500). […] Inward currents were elicited from a holding potential of −80 mV except where indicated. […] Blocking activity of the mixture is expressed as fraction of response blocked by the mixture. Dose-response curves were fitted to the Hill equation:
[formula] where y is the ratio of current in the presence and presence of blocker, [x] is the blocker concentration, and IC50 and nH represent the concentration blocks 50% of response and Hill coefficient, respectively. Current-voltage relationships were measured first in the absence and then in the presence of a given concentration of lead at a specified membrane holding potential, and the ratio of these currents was plotted as a function of the holding potential. Analysis of the voltage dependent block current was performed according to the model proposed by Woodhull (Woodhull A. M., J. Gen. Physiol., 61:687–708, 1973). Data were fitted with the equation according to Zarei and Dani (Zarei M. M. and Dani J. A., J. Gen. Physiol., 1103(2):231–48, 1994):
[formula] where Ib and Ic are currents recorded during the blockade and control, respectively; [B] is the concentration of the blocker; Kd is the dissociation constant of the blocker at 0 mV; δ is the fraction of the membrane field sensed by the blocker as it binds to its site; V is the command voltage; R is the gas constant; T is the absolute temperature; F is the Faraday's number; z is the valence of the blocker.
Experiment [5] deals with NMDA receptor, S616G (Homo sapiens, UniProt Q05586+Q12879, S616G). Briefly: Block of NMDA receptor with S616G mutation in oocytes. Type of experiment: cell-based. To be noted: versus wild type. Here is the method: (§2) In contrast, mutations at N614G, N615G and S616G in the M2 segment had no effect on NBTA binding.
(§3) Oocytes of stage V and VI were surgically removed from the ovaries of […] anesthetized with 0.4% ethyl 3-amino-benzoate methanesulfonic acid-Clusters of oocytes were incubated with 2 mg/ml collagenase (Life Technologies, Gaithersburg, Md.) for 1 hour 20 min in Ca^2+-free solution comprised of (mM) 82.5 NaCl, 2.5 KCl, 1 MgCl2, 5 HEPES, pH 7.4 with vigorous agitation to remove the follicular cell layer. Oocytes were then washed extensively with the Ca^2+-free solution to remove the collagenase. Oocytes were eventually incubated in Barth's solution consisted of (in mM): 96 NaCl, 2 mM KCl, 1.8 CaCl2, 1 MgCl2, 5 HEPES supplemented with 100U/ml penicillin and 100 ug/ml streptomycin, pH 7.4 at 17° C. Oocytes were injected with 5–15 ng of cRNA encoding NR1 or its mutant premixed with three-fold amount of cRNA encoding NR2A.
(§4) On days two to six following injection of cRNAs, whole oocyte currents were recorded with standard two-electrode voltage-clamp. […] The blocking activities of the library were assessed at 10 μM (assuming the molecular weight is ˜500). […] Blocking activity of the mixture is expressed as fraction of response blocked by the mixture. […]

The target in experiment [6] is T2, non-NMDA glutamate receptor GluR1 (Homo sapiens, UniProt P42261).
T2 construct: expressed in transfected cells
Kind of experiment: Two-electrode voltage-clamp block of GluR1 expressed in Xenopus oocytes. Type of experiment: cell-based.
Text: Recombinant NMDA receptor subunits, NR1 (Planells-Cases R, et al., Proc. Natl. Acad. Sci. USA, 90(11):5057–61, 1993) and NR2A (Le Bourdelles B, et al., J. Neurochem., 62(6):2091–8, 1994) was used for screening the dipeptidomimetic combinatorial library. cDNAs of NR1 and NR2A were linearized with NOT1. cRNAs encoding NR1 and NR2A were synthesized from the linearized cDNAs templates according to manufacturer specifications (Ambion). NR1 mutant (N616Q) was used to examine the site of action of the identified lead. The NR1A mutants were linearized with NOT1 and use of T7 for sense. cDNA of human glutamate receptor/GluR1 (Sun W., et al., Proc. Natl. Acad. Sci. USA, 89:1443–1447, 1992) was linearized with Hind III and the use of T3 promoter for the synthesis of its […]. cDNAs were quantified by spectroscopy and the quality were assessed by gel electrophoresis. […]
as §4

In experiment [7] the target is NMDA receptor, NR2A tryptophan 606 to leucine (Homo sapiens, UniProt Q05586+Q12879, W606L). Kind of experiment: Block of NMDA receptor with NR2A tryptophan 606 to leucine substitution in oocytes. Type of experiment: cell-based. The settings on record: versus wild type. Here is the method: as §2, §3, §4
Experiment [8] has as its target NMDA receptor, N615G (Homo sapiens, UniProt Q05586+Q12879, N615G). Kind of experiment: Block of NMDA receptor with N615G mutation in oocytes. Type of experiment: cell-based. To be noted: versus wild type. How it is done: as §2, §3, §4
The target in experiment [9] is NMDA receptor, N614G (NR2 mutant) (Homo sapiens, UniProt Q05586+Q12879, N614G). Kind of experiment: Block of NMDA receptor with N614G mutation in oocytes. Type of experiment: cell-based. The settings on record: versus wild type. How it is done:
as §2, §3, §4

For experiment [10], the target named is NMDA receptor, N616Q (NR1 mutant) with N614G (NR2 mutant) (Homo sapiens, UniProt Q05586+Q12879, N614G/N616Q). Kind of experiment: Block of NMDA receptor with coexpressed N616Q (NR1 mutant) and N614G (NR2 mutant) in oocytes. Type of experiment: cell-based. The settings on record: versus N616Q alone. How it is done:
as §2, §3, §4

In experiment [11] the target is NMDA receptor, NR1 mutant (N616Q) (Homo sapiens, UniProt Q05586+Q12879, N616Q). Kind of experiment: Block of NMDA receptor with NR1 mutant N616Q in oocytes. To be noted: versus wild type. Type of experiment: cell-based.
Experiment [12] concerns the target T1, NMDA receptors (NR1/NR2A). To be noted: literature values; cited from earlier work.

pIC50: −log10 of the molar value. Where “and” joins values, the source holds several entries; their conditions need not be identical. Equal entries are not always repeated. Entries after “also recorded” stand apart in the source; their conditions may differ. Where two headings read alike, the source gives them in different places.

T2 sequence (P42261 19-906): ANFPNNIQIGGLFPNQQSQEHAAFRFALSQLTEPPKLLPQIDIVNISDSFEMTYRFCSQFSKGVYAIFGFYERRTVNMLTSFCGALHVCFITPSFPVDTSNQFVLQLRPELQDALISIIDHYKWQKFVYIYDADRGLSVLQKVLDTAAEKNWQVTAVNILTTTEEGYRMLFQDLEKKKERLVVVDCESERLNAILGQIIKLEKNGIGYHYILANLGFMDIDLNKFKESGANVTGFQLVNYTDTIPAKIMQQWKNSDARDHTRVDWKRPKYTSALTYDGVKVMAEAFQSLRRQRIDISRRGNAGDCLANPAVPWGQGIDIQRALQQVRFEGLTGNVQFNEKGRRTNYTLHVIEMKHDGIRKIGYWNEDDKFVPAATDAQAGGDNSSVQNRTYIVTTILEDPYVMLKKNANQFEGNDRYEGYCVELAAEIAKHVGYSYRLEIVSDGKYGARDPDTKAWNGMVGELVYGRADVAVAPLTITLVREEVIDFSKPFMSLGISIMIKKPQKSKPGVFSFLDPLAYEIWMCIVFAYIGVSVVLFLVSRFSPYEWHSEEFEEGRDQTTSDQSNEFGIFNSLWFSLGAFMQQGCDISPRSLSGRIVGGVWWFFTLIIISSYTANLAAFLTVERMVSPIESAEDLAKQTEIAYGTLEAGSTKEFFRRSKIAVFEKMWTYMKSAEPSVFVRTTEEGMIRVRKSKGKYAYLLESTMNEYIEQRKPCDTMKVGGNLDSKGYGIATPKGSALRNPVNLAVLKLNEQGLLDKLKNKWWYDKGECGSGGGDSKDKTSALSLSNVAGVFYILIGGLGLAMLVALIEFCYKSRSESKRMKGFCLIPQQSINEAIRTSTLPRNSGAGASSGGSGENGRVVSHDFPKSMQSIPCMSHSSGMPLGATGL
T1 sequence (Q12879 23-1464, other chains not shown): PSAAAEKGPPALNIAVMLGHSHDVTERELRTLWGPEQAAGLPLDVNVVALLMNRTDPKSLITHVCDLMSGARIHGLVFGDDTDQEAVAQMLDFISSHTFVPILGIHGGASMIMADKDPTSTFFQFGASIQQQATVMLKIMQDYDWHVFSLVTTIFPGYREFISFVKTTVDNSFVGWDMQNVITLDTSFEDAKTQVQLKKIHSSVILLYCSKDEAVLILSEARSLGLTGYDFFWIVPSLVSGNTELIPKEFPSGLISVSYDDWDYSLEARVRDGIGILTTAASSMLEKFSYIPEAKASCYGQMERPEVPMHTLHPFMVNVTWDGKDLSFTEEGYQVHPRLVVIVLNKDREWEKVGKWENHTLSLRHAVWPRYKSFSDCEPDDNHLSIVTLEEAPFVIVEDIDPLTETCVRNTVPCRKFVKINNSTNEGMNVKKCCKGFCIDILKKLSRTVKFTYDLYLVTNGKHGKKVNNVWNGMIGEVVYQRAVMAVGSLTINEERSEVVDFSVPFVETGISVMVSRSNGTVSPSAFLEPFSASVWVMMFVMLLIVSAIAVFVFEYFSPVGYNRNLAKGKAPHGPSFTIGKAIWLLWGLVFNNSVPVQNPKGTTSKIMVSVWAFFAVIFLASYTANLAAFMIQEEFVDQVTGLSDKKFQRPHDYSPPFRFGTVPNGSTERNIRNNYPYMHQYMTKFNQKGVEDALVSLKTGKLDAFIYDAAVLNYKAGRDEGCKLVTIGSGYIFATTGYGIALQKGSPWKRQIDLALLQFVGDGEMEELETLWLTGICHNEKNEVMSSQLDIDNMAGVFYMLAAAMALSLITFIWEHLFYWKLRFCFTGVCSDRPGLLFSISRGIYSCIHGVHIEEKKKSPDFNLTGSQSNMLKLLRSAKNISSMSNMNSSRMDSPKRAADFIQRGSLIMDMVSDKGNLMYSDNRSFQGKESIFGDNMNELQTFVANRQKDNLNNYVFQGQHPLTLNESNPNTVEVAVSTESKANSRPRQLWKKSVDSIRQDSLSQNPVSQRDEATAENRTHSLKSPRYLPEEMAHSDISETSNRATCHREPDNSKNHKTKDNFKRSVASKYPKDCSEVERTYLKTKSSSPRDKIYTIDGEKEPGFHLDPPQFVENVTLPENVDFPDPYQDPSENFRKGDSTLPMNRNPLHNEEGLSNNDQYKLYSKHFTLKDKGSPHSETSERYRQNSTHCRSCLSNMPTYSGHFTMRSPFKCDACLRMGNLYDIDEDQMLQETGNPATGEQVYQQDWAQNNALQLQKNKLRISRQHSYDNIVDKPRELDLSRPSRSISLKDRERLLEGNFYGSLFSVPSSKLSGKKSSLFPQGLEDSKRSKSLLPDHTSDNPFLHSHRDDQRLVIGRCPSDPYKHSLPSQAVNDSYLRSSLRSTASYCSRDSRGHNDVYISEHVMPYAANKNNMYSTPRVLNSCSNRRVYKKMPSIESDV
NMDA receptor, S616G, sequence (Q12879 23-1464 S616G, other chains not shown): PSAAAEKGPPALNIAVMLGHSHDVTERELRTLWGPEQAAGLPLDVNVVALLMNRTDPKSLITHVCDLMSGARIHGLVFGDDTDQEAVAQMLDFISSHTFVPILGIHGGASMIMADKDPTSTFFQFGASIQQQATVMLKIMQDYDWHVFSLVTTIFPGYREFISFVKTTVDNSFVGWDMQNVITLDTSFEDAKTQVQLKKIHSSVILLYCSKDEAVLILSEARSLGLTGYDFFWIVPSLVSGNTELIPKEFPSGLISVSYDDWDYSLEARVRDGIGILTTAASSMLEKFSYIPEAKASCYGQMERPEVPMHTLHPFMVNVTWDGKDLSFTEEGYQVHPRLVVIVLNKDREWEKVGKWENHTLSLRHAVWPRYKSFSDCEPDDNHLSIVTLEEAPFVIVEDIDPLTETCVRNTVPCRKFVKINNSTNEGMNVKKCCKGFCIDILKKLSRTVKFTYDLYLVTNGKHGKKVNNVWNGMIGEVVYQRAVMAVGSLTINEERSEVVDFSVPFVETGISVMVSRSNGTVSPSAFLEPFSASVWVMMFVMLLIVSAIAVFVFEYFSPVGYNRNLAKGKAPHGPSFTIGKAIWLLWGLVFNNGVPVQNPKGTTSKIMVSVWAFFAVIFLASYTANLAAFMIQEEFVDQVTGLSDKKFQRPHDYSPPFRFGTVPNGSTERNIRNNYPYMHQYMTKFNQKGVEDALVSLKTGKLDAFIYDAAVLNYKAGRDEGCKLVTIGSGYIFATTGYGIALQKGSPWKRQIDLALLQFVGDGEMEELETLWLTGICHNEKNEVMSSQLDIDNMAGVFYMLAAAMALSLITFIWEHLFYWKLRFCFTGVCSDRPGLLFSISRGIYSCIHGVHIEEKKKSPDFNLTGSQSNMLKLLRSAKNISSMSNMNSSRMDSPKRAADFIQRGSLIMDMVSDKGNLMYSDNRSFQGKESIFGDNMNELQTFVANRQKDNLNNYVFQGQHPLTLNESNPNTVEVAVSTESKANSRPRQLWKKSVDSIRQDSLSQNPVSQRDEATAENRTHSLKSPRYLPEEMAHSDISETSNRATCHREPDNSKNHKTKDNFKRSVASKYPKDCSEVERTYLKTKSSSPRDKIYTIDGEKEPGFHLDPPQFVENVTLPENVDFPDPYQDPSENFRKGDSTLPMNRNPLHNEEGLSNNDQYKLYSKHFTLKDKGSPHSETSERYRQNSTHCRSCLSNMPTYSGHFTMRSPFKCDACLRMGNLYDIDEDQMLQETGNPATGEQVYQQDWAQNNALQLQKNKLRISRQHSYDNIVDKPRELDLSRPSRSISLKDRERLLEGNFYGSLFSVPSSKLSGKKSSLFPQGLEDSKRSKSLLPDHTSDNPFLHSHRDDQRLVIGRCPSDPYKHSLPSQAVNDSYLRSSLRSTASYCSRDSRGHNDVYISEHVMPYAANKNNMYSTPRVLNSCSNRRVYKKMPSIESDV

For `N#Cc1cc2c(cc1[N+](=O)[O-])=NC(=O)C(=O)N=2` [CNQX, 6-cyano-7 nitroquinoxaline-2,3-dione], the “effect on neuronal cell death induced by kainate” value (“effect … by kainate” for short) in [1] was “protects neurons”.

For `CN[C@H](CC(=O)O)C(=O)O` [NMDA, N-methyl-D aspartate], the “cell death induced by NMDA” value in experiment [2] (no blocker) was 50±3% and 45±6%.

Regarding `CCC(C)C(N)CN(Cc1ccccc1)C(CNCc1ccccc1)Cc1ccc(O)cc1` (stereo not shown) [NBTA], the “reduction of blocking activity by N616R substitution” value in experiment [3] was 275 fold. Further, the “use dependence of NMDA receptor block” value in experiment [4] (0.1 μM, repetitive pulses of glutamate (200 μM) and glycine (20 μM), -80 mV) was “progressive block; also recorded: progressive blockade”. The “block of NMDA current” value in experiment [4] (1 μM compound, -80 mV) is 70±3% and ~95%. In experiment [4] (Hill equation fit, n=6, read-out: IC50, wild-type NMDA receptors (NR1/NR2A)), the pIC50 is 7.10. In addition, in experiment [4] (Woodhull model of voltage-dependent block), the “δ, fraction of the membrane field sensed by the blocker” value (“δ, fraction” below) worked out at 0.56. Further, the “fraction of transmembrane electric field traversed to reach binding site” value in experiment [4] (from δ) is ~56%. Also, the “voltage dependence of NMDA current reduction” value in experiment [4] (voltage-ramp protocol, 200 μM L-glutamic acid plus 20 μM glycine) is recorded as “voltage-dependent”. The “effect of S616G mutation on binding” value in [5] is reported as “no effect”. Further, in [6] (1 μM), the “block of GluR1” value is recorded as “not”. In addition, the “effect on GluR1 / AMPA receptors” value in experiment [6] (even at 1 mM / mM concentration range) is given as “no effect at all”. Also, in experiment [2], the “protection from NMDA receptor-mediated cell death” value (shortened to “protection”) was found to be 83±2%. Also, the “effect … by kainate” value in [1] is “no effect”. In addition, in experiment [7], the “reduction of blocking activity by tryptophan to leucine substitution in NR2A” value worked out at 4.7 fold. Further, the “effect of N615G mutation on binding” value in experiment [8] is listed as “no effect”. Moreover, the “effect of N614G mutation on binding” value in experiment [9] is “no effect”. The “binding with coexpressed N616Q and N614G compared with N616Q alone” value in [10] is “similar”. In addition, in experiment [11], the “change of blocking activity by replacement of N616 for glutamine” value is on record as “only slightly reduces”.

Regarding `[Mg+2]` [Mg^2+], the “δ, fraction” value in experiment [12] is ~0.77.

As to `CC12CC3CC(C)(C1)CC(N)(C3)C2` [memantine, 1-amino-3,5-dimethyladamantane], the “δ, fraction” value in [12] was ~0.77. Moreover, the “protection” value in [2] is on record as 93±1%. Also, the “effect … by kainate” value in experiment [1] is recorded as “protect neurons as well, though not as effectively as CNQX”.

For the compound `C[C@]12N[C@H](Cc3ccccc31)c1ccccc12` [MK-801], the “protection” value in [2] stood at 89±1%. Further, the “effect … by kainate” value in [1] was “protect neurons as well, though not as effectively as CNQX”.

The values above are taken from patent US7022882B2, “NMDA receptor channel blocker with neuroprotective activity” (priority 2000, dated 2006).
